Experimental data from US12509444B2, “Compounds and methods for CD73 modulation and indications therefor” (Plexxikon Inc., priority 2019, dated 2025).

What was measured:
[1] = target: T1, human CD73 (Homo sapiens, UniProt P21589); experiment: Inhibitor activity against CD73 in cell based assay (CD73 expressing CHO-K1 cells); conditions: CHO-K1 cells expressing human CD73, 150 μM AMP, 4 hours of incubation; read-out: CHO-K1 CELL VARIANT: CD73 IC50
T1 construct: expressed in transfected cells
T1 sequence (P21589 27-549): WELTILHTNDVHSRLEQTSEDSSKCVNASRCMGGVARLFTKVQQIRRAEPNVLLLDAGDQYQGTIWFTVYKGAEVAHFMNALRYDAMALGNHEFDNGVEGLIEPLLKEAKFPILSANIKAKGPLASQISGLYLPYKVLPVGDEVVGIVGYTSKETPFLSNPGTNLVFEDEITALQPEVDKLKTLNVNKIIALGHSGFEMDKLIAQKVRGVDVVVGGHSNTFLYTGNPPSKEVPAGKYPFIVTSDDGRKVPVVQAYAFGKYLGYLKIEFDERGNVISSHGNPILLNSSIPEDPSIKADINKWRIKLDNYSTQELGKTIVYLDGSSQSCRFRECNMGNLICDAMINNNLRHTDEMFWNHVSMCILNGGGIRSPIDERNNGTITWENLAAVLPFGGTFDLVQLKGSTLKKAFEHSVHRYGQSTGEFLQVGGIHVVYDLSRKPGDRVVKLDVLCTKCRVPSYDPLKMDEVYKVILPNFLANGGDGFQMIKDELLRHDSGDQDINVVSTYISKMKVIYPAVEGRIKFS
Method in brief: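 Residual supernatant AMP was quantified via CellTiter-Glo luminescence (1 μM ATP added, 30 min, room temperature) after a 4 h exposure of human CD73-expressing CHO-K1 cells to 150 μM AMP plus compound, top final 10 μM, 8 points. IC50 came from nonlinear regression of percent inhibition.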

[2] = target: T2, Human CD73 (amino acid residues 27-549) (Homo sapiens, UniProt P21589); experiment: CD73 enzymatic assay (luciferase-based indirect assay, CellTiter-Glo); assay type: biochemical; conditions: 0.4 nM CD73, 150 μM AMP, 1 hour at room temperature
T2 construct: Human CD73 (amino acid residues 27-549); His tag (N); made in house; host or cells: E. coli
T2 sequence (P21589 27-549): T1 sequence (P21589 27-549)
Method in brief: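 Residual AMP inhibits luciferase, so luminescence reports CD73 turnover; read with CellTiter-Glo 2.0 plus 1 μM final ATP, 30 min. Reaction used 0.4 nM N-His CD73 (27-549, E. coli), 150 μM AMP, HEPES pH 7.4 with Tween 20, 1 h at room temperature. IC50 fitted by nonlinear regression.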

SMILES	IC50 [1] [µM]	IC50 [2] [µM]
O=C(NCC1CCCCC1)O[C@@H]1CCN(c2cn[nH]c(=O)c2Cl)C1 [P-0233, (R)-1-(5-chloro-6-oxo-1,6-dihydropyridazin-4-yl)pyrrolidin-3-yl (cyclohexylmethyl)carbamate]	0.001 to 10	0.001 to 10
O=C(NCCC1CCCC1)O[C@@H]1CCN(c2cn[nH]c(=O)c2Cl)C1 [P-0234, (R)-1-(5-chloro-6-oxo-1,6-dihydropyridazin-4-yl)pyrrolidin-3-yl (2-cyclopentylethyl)carbamate]	0.001 to 10	0.001 to 10
O=C(NCCCO)O[C@@H]1CCN(c2cn[nH]c(=O)c2Cl)C1 [P-0235, (R)-1-(5-chloro-6-oxo-1,6-dihydropyridazin-4-yl)pyrrolidin-3-yl (3-hydroxypropyl)carbamate]	0.001 to 10	0.001 to 10
O=C(NCC1CCOCC1)O[C@@H]1CCN(c2cn[nH]c(=O)c2Cl)C1 [P-0236, (R)-1-(5-chloro-6-oxo-1,6-dihydropyridazin-4-yl)pyrrolidin-3-yl ((tetrahydro-2H-pyran-4-yl)methyl)carbamate]	0.001 to 10	0.001 to 10
O=C(N[C@@H]1CC[C@H](NS(=O)(=O)c2ccccc2F)C1)O[C@@H]1CCN(c2cn[nH]c(=O)c2Cl)C1 [P-0237, (R)-1-(5-chloro-6-oxo-1,6-dihydropyridazin-4-yl)pyrrolidin-3-yl ((1R,3S)-3-((2-fluorophenyl)sulfonamido)cyclopentyl)carbamate]	0.001 to 10	0.001 to 10
Cn1ncc(N2CC[C@@H](OC(=O)N[C@H]3CC[C@H](NS(=O)(=O)c4c(F)cccc4F)CC3)C2)c(Cl)c1=O [P-0238, (R)-1-(5-chloro-1-methyl-6-oxo-1,6-dihydropyridazin-4-yl)pyrrolidin-3-yl ((1r,4R)-4-((2,6-difluorophenyl)sulfonamido)cyclohexyl)carbamate]	0.001 to 10	0.001 to 10
Cn1ncc(N2CC[C@@H](OC(=O)N[C@H]3CC[C@H](NS(=O)(=O)c4ccccc4Br)CC3)C2)c(Cl)c1=O [P-0239, (R)-1-(5-chloro-1-methyl-6-oxo-1,6-dihydropyridazin-4-yl)pyrrolidin-3-yl ((1r,4R)-4-((2-bromophenyl)sulfonamido)cyclohexyl)carbamate]	0.001 to 10	0.001 to 10
O=C(NCC1CCNCC1)O[C@@H]1CCN(c2cn[nH]c(=O)c2Cl)C1 [P-0240, (R)-1-(5-chloro-6-oxo-1,6-dihydropyridazin-4-yl)pyrrolidin-3-yl (piperidin-4-ylmethyl)carbamate]	0.001 to 10	0.001 to 10
CC(=O)N1CCC(CNC(=O)O[C@@H]2CCN(c3cn[nH]c(=O)c3Cl)C2)CC1 [P-0241, (R)-1-(5-chloro-6-oxo-1,6-dihydropyridazin-4-yl)pyrrolidin-3-yl ((1-acetylpiperidin-4-yl)methyl)carbamate]	0.001 to 10	0.001 to 10
O=CN1CCC(CNC(=O)O[C@@H]2CCN(c3cn[nH]c(=O)c3Cl)C2)CC1 [P-0242, (R)-1-(5-chloro-6-oxo-1,6-dihydropyridazin-4-yl)pyrrolidin-3-yl ((1-formylpiperidin-4-yl)methyl)carbamate]	0.001 to 10	0.001 to 10
O=C(N[C@@H]1CC[C@H](NC(=O)c2ccccc2)C1)O[C@@H]1CCN(c2cn[nH]c(=O)c2Cl)C1 [P-0243, (R)-1-(5-chloro-6-oxo-1,6-dihydropyridazin-4-yl)pyrrolidin-3-yl ((1R,3S)-3-benzamidocyclopentyl) carbamate]	0.001 to 10	0.001 to 10
COC(=O)Cn1ncc(N2CC[C@@H](OC(=O)NC3CCC(F)(F)CC3)C2)c(Cl)c1=O [P-0244, methyl (R)-2-(5-chloro-4-(3-(((4,4-difluorocyclohexyl)carbamoyl)oxy)pyrrolidin-1-yl)-6-oxopyridazin-1(6H)-yl)acetate]	10 to 100	0.001 to 10
COCCn1ncc(N2CC[C@@H](OC(=O)NC3CCC(F)(F)CC3)C2)c(Cl)c1=O [P-0245, (R)-1-(5-chloro-1-(2-methoxyethyl)-6-oxo-1,6-dihydropyridazin-4-yl)pyrrolidin-3-yl (4,4-difluorocyclohexyl)carbamate]	10 to 100	0.001 to 10
O=C(NC1CCC(F)(F)CC1)O[C@@H]1CCN(c2cnn(CC(O)CO)c(=O)c2Cl)C1 (stereo partly drawn) [P-0246, (3R)-1-(5-chloro-1-(2,3-dihydroxypropyl)-6-oxo-1,6-dihydropyridazin-4-yl)pyrrolidin-3-yl (4,4-difluorocyclohexyl)carbamate]	0.001 to 10	0.001 to 10
CCS(=O)(=O)N[C@H]1CC[C@H](NC(=O)O[C@@H]2CCN(c3cn[nH]c(=O)c3Cl)C2)CC1 [P-0247, (R)-1-(5-chloro-6-oxo-1,6-dihydropyridazin-4-yl)pyrrolidin-3-yl ((1r,4R)-4-(ethylsulfonamido)cyclohexyl) carbamate]	0.001 to 10	0.001 to 10
N#Cc1ccc(S(=O)(=O)N[C@H]2CC[C@H](NC(=O)O[C@@H]3CCN(c4cn[nH]c(=O)c4Cl)C3)CC2)cc1 [P-0248, (R)-1-(5-chloro-6-oxo-1,6-dihydropyridazin-4-yl)pyrrolidin-3-yl ((1r,4R)-4-((4-cyanophenyl)sulfonamido)cyclohexyl)carbamate]	0.001 to 10	0.001 to 10
Cc1cccc(S(=O)(=O)N[C@H]2CC[C@H](NC(=O)O[C@@H]3CCN(c4cn[nH]c(=O)c4Cl)C3)CC2)c1 [P-0249, (R)-1-(5-chloro-6-oxo-1,6-dihydropyridazin-4-yl)pyrrolidin-3-yl ((1r,4R)-4-((3-methylphenyl)sulfonamido)cyclohexyl)carbamate]	0.001 to 10	0.001 to 10
Cc1ccccc1S(=O)(=O)N[C@H]1CC[C@H](NC(=O)O[C@@H]2CCN(c3cn[nH]c(=O)c3Cl)C2)CC1 [P-0250, (R)-1-(5-chloro-6-oxo-1,6-dihydropyridazin-4-yl)pyrrolidin-3-yl ((1r,4R)-4-((2-methylphenyl)sulfonamido)cyclohexyl)carbamate]	0.001 to 10	0.001 to 10
COc1ccc(S(=O)(=O)N[C@H]2CC[C@H](NC(=O)O[C@@H]3CCN(c4cn[nH]c(=O)c4Cl)C3)CC2)cc1 [P-0251, (R)-1-(5-chloro-6-oxo-1,6-dihydropyridazin-4-yl)pyrrolidin-3-yl ((1r,4R)-4-((4-methoxyphenyl)sulfonamido)cyclohexyl)carbamate]	0.001 to 10	0.001 to 10
COc1ccc(S(=O)(=O)N[C@H]2CC[C@H](NC(=O)O[C@@H]3CCN(c4cn[nH]c(=O)c4Cl)C3)CC2)cn1 [P-0252, (R)-1-(5-chloro-6-oxo-1,6-dihydropyridazin-4-yl)pyrrolidin-3-yl ((1r,4R)-4-((6-methoxypyridine)-3-sulfonamido)cyclohexyl) carbamate]	0.001 to 10	0.001 to 10
O=C(N[C@H]1CC[C@H](NS(=O)(=O)c2ccc(C(F)(F)F)nc2)CC1)O[C@@H]1CCN(c2cn[nH]c(=O)c2Cl)C1 [P-0253, (R)-1-(5-chloro-6-oxo-1,6-dihydropyridazin-4-yl)pyrrolidin-3-yl ((1r,4R)-4-((6-(trifluoromethyl)pyridine)-3-sulfonamido)cyclohexyl) carbamate]	0.001 to 10	0.001 to 10
O=C(N[C@H]1CC[C@H](NS(=O)(=O)c2ccc(C(F)(F)F)cc2)CC1)O[C@@H]1CCN(c2cn[nH]c(=O)c2Cl)C1 [P-0254, (R)-1-(5-chloro-6-oxo-1,6-dihydropyridazin-4-yl)pyrrolidin-3-yl ((1r,4R)-4-((4-(trifluoromethyl)phenyl)sulfonamido)cyclohexyl)carbamate]	0.001 to 10	0.001 to 10
Cn1cc(S(=O)(=O)N[C@H]2CC[C@H](NC(=O)O[C@@H]3CCN(c4cn[nH]c(=O)c4Cl)C3)CC2)cn1 [P-0255, (R)-1-(5-chloro-6-oxo-1,6-dihydropyridazin-4-yl)pyrrolidin-3-yl ((1r,4R)-4-((1-methyl-1H-pyrazole)-4-sulfonamido)cyclohexyl) carbamate]	0.001 to 10	0.001 to 10
O=C(N[C@H]1CC[C@H](NC(=O)c2cccnc2)CC1)O[C@@H]1CCN(c2cn[nH]c(=O)c2Cl)C1 [P-0256, (R)-1-(5-chloro-6-oxo-1,6-dihydropyridazin-4-yl)pyrrolidin-3-yl ((1r,4R)-4-(nicotinamido)cyclohexyl) carbamate]	0.001 to 10	0.001 to 10
O=C(N[C@H]1CC[C@H](NC(=O)C2CC2)CC1)O[C@@H]1CCN(c2cn[nH]c(=O)c2Cl)C1 [P-0257, (R)-1-(5-chloro-6-oxo-1,6-dihydropyridazin-4-yl)pyrrolidin-3-yl ((1r,4R)-4-(cyclopropanecarboxamido)cyclohexyl)carbamate]	0.001 to 10	0.001 to 10
